Experiments:
[1] = test system: CF nasal epithelial cells; experiment: Intracellular calcium [Ca^2+ ]i in single CF nasal epithelial cells (Fura-2); type: cell-based, human; conditions: FIG. 6
Experimental: Freshly excised human nasal epithelium from normal or cystic fibrosis subjects was grown in primary culture in F-12, hormone-supplemented medium in accordance with known procedures. See R. Wu et al., Am. Rev. Respir. Dis. […] For [Ca^2+ ]i measurements, cultures were grown on non-fluorescent vitrogen substrates on glass coverslips. Cultures for electrophysiologic studies were grown to confluence on permeable collagen matrix supports (CMS), allowing addition of agonists to the basolateral or apical surface of the epithelial sheet.
Primary human nasal epithelial cells grown to confluence on vitrogen coated coverslips were loaded with a final concentration of 3 μM Fura-2/AM at 37° C. for 30 minutes. The cells were then washed in NaCl Ringer and mounted in a chamber for measurements of fluorescence. To reduce the rate of leakage of Fura-2 from the cell into the extracellular space and avoid time-dependent compartmentalization of the probe, all measurements of [Ca^2+ ]i were performed at 25° C.
Measurements of [Ca^2+ ]i in single human nasal epithelial cells were obtained with a modular microspectrofluorimeter (SPEX Industries, Inc., Edison, N.J.) attached to a Zeiss Axiovert IM 35 microscope. […] The fluorescent signal from a single cell was measured with a photometer equipped with a pinhole (spot diameter of 3-5 μm) that excluded signals from adjacent cells. […]

[2] = test system: CF human nasal epithelium; experiment: Bioelectric studies (Isc) of cystic fibrosis (CF) human nasal epithelium; type: cell-based; conditions: for Isc response tracing: 10^-4 M, amiloride-pretreated (10^-4 M)
Experimental: (§1) Freshly excised human nasal epithelium from normal or cystic fibrosis subjects was grown in primary culture in F-12, hormone-supplemented medium in accordance with known procedures. See R. Wu et al., Am. Rev. Respir. Dis. 132, 311-320 (1985). For [Ca^2+ ]i measurements, cultures were grown on non-fluorescent vitrogen substrates on glass coverslips. Cultures for electrophysiologic studies were grown to confluence on permeable collagen matrix supports (CMS), allowing addition of agonists to the basolateral or apical surface of the epithelial sheet.
(§2) Confluent monolayers of primary human nasal epithelium were mounted in modified Ussing chambers in accordance with known procedures. See, e.g., R. Boucher et al., J. Physiol. (Lond.) 405, 77-103 (1988); M. Knowles et al., Science 221, 1067-1070 (1983). The studies described below were performed under short circuit current conditions at 37° C., and in some studies, amiloride was added to the apical bath (10^-4 M) to block transepithelial sodium transport. Changes in transepithelial potential difference (Vt), resistance (Rt) and short circuit current (Isc) were measured in response to addition of various nucleotides. Each cultured preparation was exposed to only one concentration of an agonist on either the basolateral or apical surface to avoid the tachyphylaxis observed in preliminary cumulative dose response studies. To construct concentration-effect relationships of responses to nucleotides, it was assumed that the same maximum response to an agonist could be induced from each tissue culture preparation from the same individual.
(§3) The purinergic receptor subtype(s) linked to regulation of ion transport of human nasal epithelium were characterized by obtaining concentration-effect relationships for a variety of purine and pyrimidine agonists in preparations derived from normal and CF patients. We characterized receptor subtype(s) on the […] surface by measuring nucleotide effect on basal Na^+ transport rates. Because therapies designed to induce Cl^- secretion might best be delivered by the aerosol route, receptor subtype characterization on the apical barrier was performed in the presence of amiloride. The effect of extracellular nucleotides on ion transport is reported as the percent change in Isc from control values when applied to the basolateral or apical surface of the culture. Basal pre-agonist currents were similar for tissues in each concentration group.
Availability of Cystic Fibrosis (CF) tissues is limited, and our investigation of effects of nucleotides was restricted to examining regulation of Cl^- secretion rates and [Ca^2+ ]i levels by ATP and UTP.

[3] = test system: normal human nasal epithelium; experiment: Bioelectric studies (short circuit current, Isc) of normal human nasal epithelium in Ussing chambers; type: cell-based
Experimental: as §1, §2
The effects of extracellular ATP on normal human nasal epithelium were investigated employing bioelectric measurements of ion transport activity when the nucleotide was applied to either the apical or basolateral membrane. […] In general, the change in Isc induced by application of ATP to the apical or the basolateral side returned to baseline or below within 5 minutes after addition of agonist. […] Apical pretreatment with amiloride (10^-4 M) removes active Na^+ absorption as a component of the Isc so that the residual Isc reflects a Cl^- secretory current (R. Boucher et al., J. Clin. Invest. 78, 1245-1252 (1986); N. Willumsen et al., Am. J. Physiol. 256, C1033-C1044 (1989)).
A concentration-effect relationship was found when ATP was applied to normal human nasal epithelium under basal conditions (data not shown). Comparisons were made between responses of tissues from different donors based on the peak change in Isc following ATP application. The curve describes the mean peak change in Isc in response to log increasing concentrations of ATP applied to the apical or basolateral surface.
Concentration-effect relationships were also found for ATP applied to the apical or basolateral membrane of amiloride-pretreated tissues (data not shown). Again, the nucleotide's effect on ion transport was examined as the mean peak change in Isc after ATP application.
as §3

[4] = Homo sapiens, read-out: maximum mean % change in Isc

Nc1ncnc2c1ncn2[C@@H]1O[C@H](COP(=O)(O)OP(=O)(O)OP(=O)(O)O)[C@@H](O)[C@H]1O [ATP, adenosine triphosphate]
[Ca^2+ ]i response in CF tissues [1]: Increases in [Ca^2+ ]i | Isc response tracing ([2]; apical surface, FIG. 4A): Cl^- secretion in response to ATP | Isc response tracing ([2]; apical surface, FIG. 4B): opposite polarity | Emax [2, 4]: 14 ± 3% | change in Isc over basal levels ([2]; apical surface, amiloride-pretreated CF tissues): Most tissues exhibited an increase in Isc over basal levels | pattern of Isc response ([2]; apical, amiloride-pretreated CF tissues): two distinct patterns of response | CF tissues responding with a change to opposite polarity of Isc ([2]; apical, amiloride-pretreated CF tissues, FIG. 4B): approximately 30% | Cl^- secretion (amiloride-resistant Isc) ([2]; basolateral addition, CF tissues): Only small changes in Cl^- secretion | increase in Isc at 10^-3 M ([3]; 10^-3 M, basolateral membrane (not seen with apical application), basal conditions): A large increase in Isc | change in Isc on application to either surface ([3]; ATP, apical or basolateral surface, no amiloride): rapidly stimulated an increase in Isc | time for change in Isc to return to baseline or below ([3]; ATP, apical or basolateral, basal conditions): ≤ 5 min | Emax [3, 4]: 51 ± 8% | Cl^- secretory response ([3]; amiloride-pretreated tissues): A typical Cl^- secretory response | change in ion transport, amiloride-pretreated versus basal state ([3]; amiloride-pretreated tissues): routinely smaller than that observed in tissues in the basal state | character of log concentration-effect curves ([3]; amiloride-treated tissues, apical or basolateral): sigmoidal in character | duration of prolonged increase in Isc above baseline ([3]; apical surface following amiloride pretreatment, most tissues): > 10 min | rank order of potency for Cl^- secretion ([3]; apical surface, amiloride-pretreated, FIG. 2): ATP≥UTP>ATPγS>ADP>2MeSATP>ADPβS | effectiveness, apical versus basolateral ([3]; basal conditions, 10^-7 to 10^-4 M): approximately equal | time for ATP induced increase in Isc to return to baseline ([3]; basolateral addition, amiloride-pretreated): ≤ 5 min | character of concentration-effect curve including 10^-3 M ([3]; basolateral surface, 10^-3 M drug considered): biphasic in character | character of log concentration-effect curve ([3]; basolateral surface, 10^-7 to 10^-4 M): sigmoidal character | rank order of potency for increase in Isc ([3]; basolateral surface, FIG. 1): 2MeSATP>UTP≥ATP>ATPγS>ADP>ADPβS | oscillations in Isc ([3]; following ATP): frequently observed

Source: US5292498A, “Method of treating lung disease with uridine triphosphates” (The University of North Carolina At Chapel Hill, priority 1991, dated 1994)
